In patent US11090364B2, “Conjugates of a pharmaceutical agent and a moiety capable of binding to a glucose sensing protein” (SANOFI, priority 2016, dated 2021):
pIC50: −log10 of the molar value. Where two headings read alike, the source gives them in different places. Blank lines part the entries; values can stand above or below the compound they belong to.

Legend:
[1] = test system: A2780 Human Carcinoma Cells; assay: Glucose displacement assay (ATP measurement, CellTiter-Glo); assay type: cell-based
Protocol: 2. Glucose Displacement Assay (ATP Measurement)
30.000 A2780 Human Carcinoma Cells are seeded per well in a Greiner 96-well plate. Cells are expanded and cultured in RPMI 1640 medium+GlutaMAX® with 10% FCS and 11 mM glucose, at 37° C. with 5% CO2. After 44 h, culture media is changed and washed once with PBS to starvation media consisting of RPMI 1640 medium with 1% FCS without glucose for 2 hours. Cells are then washed with KRB buffer, followed incubation for 20 min at 37° C. of the treatment mix consisting of: 60 μL KRB buffer/well with 10 μL of compound or DMSO 10×. 10 μl of rotenone is added to the mix to a final concentration of 0.5 μM. Cell plates are left for 2 min at room temperature. 20 μL of different glucose concentrations are added to the mix—typically 0.1 to 20 mM range -. Cells are incubated for another 15 min at 37° C., before measuring ATP with the CellTiter-Glo® Assay, under manufacturer's guidance, but without the equilibration step at room temperature for 30 min. In brief, 100 μl of Cell-Titer-Glo® Reagent is added to the wells containing already 100 μl of the previous reaction mix. Plates are mixed for 2 min at 800 rpm, followed by incubation at room temperature for 10 min to stabilize the luminescent signal. Luminescence is then recorded with the Tekan Ultra Evolution reader.

erythrocytes = assay: Erythrocyte dialysis assay (6-NBD-Glc, Rapid Equilibrium Dialysis); assay type: binding, rat; details: for Fluorescence intensity in buffer compartiment, 1:1 Dilution k^off / Fluorescence intensity in buffer compartiment, 1:1 Dilution k^on: 6-NBD-Glc 25 μM; for Fluorescence intensity in buffer compartiment, 6-NBD-Glc [50 μM]: absence of glucose
Source text: 3. Erythrocyte Dialysis Assay
Here 6-NBD-Glc or alternatively 2-NBD-Glc was used in dialysis based competition experiments.
Freshly isolated heparinized rat blood samples were immideately diluted (1:5) in PBS buffer to generate a stable stock solution. This stock solution was further diluted (1:1 or 1:3) for the following dialysis experiments in Rapid Equilibrium Dialysis (RED) devices (Thermo Scientific Pierce).
The aforementioned stock solution was further diluted (1:1 or 1:3 respectively) and added to the dialysis compartiment of a RED device. In parallel stock solution was diluted (1:1) with buffer containing 6 NBD Glc (25 μM).
Dialyses was started by addition of 6 NBD Glc (25 μM) in PBS Buffer (k^on) or pure PBS buffer (ko^off) respectively into the buffer compartiment. Aliquots (20 μl) were taken after defined time intervals from the buffer compartiment and fluorescence was measured in a UV plate reader (Thermovarioskan, Thermo).
As a control, free diffusion of 6-NBD-Glc (25 μM) in PBS buffer vs pure buffer was measured.
Glucose dependency was determined following the protocol described above, comparing the following solutions: 6 NBD-Glc (100 μM), 6 NBD-Glucose (100 μM)+Glucose 20 mM. Data are shown in the next table
Example 102 was investigated in a competition experiment following the same protocol using a 6-NBD-Glc solution (100 μM) in comparison to 6 NBD-Glucose (100 μM)+Example 102 (50 μM).

Compound: O=[N+]([O-])c1ccc(NC[C@H]2OC(O)[C@H](O)[C@@H](O)[C@@H]2O)c2nonc12 (some centres unmarked) [Example 6-NBD-Glc, 6-(N-(7-Nitrobenz-2-oxa-1,3-diazol-4-yl)amino)-6-Deoxyglucose]
Fluorescence intensity in buffer compartiment, 1:1 Dilution k^off (erythrocytes; 0 min): 0 AU | Fluorescence intensity in buffer compartiment, 1:1 Dilution k^on (erythrocytes; 0 min): 55 AU | Fluorescence intensity in buffer compartiment, NBD-Glc [50 μM] + Glc [10 mM] (erythrocytes; 0 min): 0 AU | Fluorescence intensity in buffer compartiment, 6-NBD-Glc [50 μM] (erythrocytes; 0 min): 0 AU | Fluorescence intensity in buffer compartiment, NBD-Glc [50 μM] + Glc [10 mM] (erythrocytes; 15 min): 7.2 AU | Fluorescence intensity in buffer compartiment, 6-NBD-Glc [50 μM] (erythrocytes; 15 min): 7.5 AU | Fluorescence intensity in buffer compartiment, 1:1 Dilution k^off (erythrocytes; 30 min): 3.4 AU | Fluorescence intensity in buffer compartiment, 1:1 Dilution k^on (erythrocytes; 30 min): 50.6 AU | Fluorescence intensity in buffer compartiment, NBD-Glc [50 μM] + Glc [10 mM] (erythrocytes; 30 min): 11.9 AU | Fluorescence intensity in buffer compartiment, 6-NBD-Glc [50 μM] (erythrocytes; 30 min): 10.6 AU | Fluorescence intensity in buffer compartiment, 1:1 Dilution k^off (erythrocytes; 60 min): 6.5 AU | Fluorescence intensity in buffer compartiment, 1:1 Dilution k^on (erythrocytes; 60 min): 45.1 AU | Fluorescence intensity in buffer compartiment, NBD-Glc [50 μM] + Glc [10 mM] (erythrocytes; 60 min): 17 AU | Fluorescence intensity in buffer compartiment, 6-NBD-Glc [50 μM] (erythrocytes; 60 min): 11.1 AU | Fluorescence intensity in buffer compartiment, 1:1 Dilution k^off (erythrocytes; 90 min): 12 AU | Fluorescence intensity in buffer compartiment, 1:1 Dilution k^on (erythrocytes; 90 min): 33 AU | Fluorescence intensity in buffer compartiment, NBD-Glc [50 μM] + Glc [10 mM] (erythrocytes; 90 min): 18.5 AU | Fluorescence intensity in buffer compartiment, 6-NBD-Glc [50 μM] (erythrocytes; 90 min): 14.9 AU | Fluorescence intensity in buffer compartiment, 1:1 Dilution k^off (erythrocytes; 120 min): 16.1 AU | Fluorescence intensity in buffer compartiment, 1:1 Dilution k^on (erythrocytes; 120 min): 34 AU | Fluorescence intensity in buffer compartiment, NBD-Glc [50 μM] + Glc [10 mM] (erythrocytes; 120 min): 20.3 AU | Fluorescence intensity in buffer compartiment, 6-NBD-Glc [50 μM] (erythrocytes; 120 min): 15.8 AU | Fluorescence intensity in buffer compartiment, NBD-Glc [50 μM] + Glc [10 mM] (erythrocytes; 180 min): 22.5 AU | Fluorescence intensity in buffer compartiment, 6-NBD-Glc [50 μM] (erythrocytes; 180 min): 16 AU | Free concentration of 6-NBD-Glc in presence of Glc [10 mM] (erythrocytes; Glc 10 mM versus absence of glucose): increased

Compound: OC1O[C@H](CN2CCN(c3ccc(Cl)cc3)CC2)[C@H](O)[C@H](O)[C@H]1O (stereo partly drawn) [Example 102, (3R,4S,5R,6R)-6-[[4-(4-Chlorophenyl)piperazin-1-yl]methyl]tetrahydropyran-2,3,4,5-tetrol]
Fluorescence intensity of 6-NBD-Glc in competition with Example 102 [25 μM] (erythrocytes; 0 min, competition with 6-NBD-Glc): 0 AU | Fluorescence intensity of 6-NBD-Glc in competition with Example 102 [25 μM] (erythrocytes; 15 min, competition with 6-NBD-Glc): 4.9 AU | Fluorescence intensity of 6-NBD-Glc in competition with Example 102 [25 μM] (erythrocytes; 30 min, competition with 6-NBD-Glc): 11.1 AU | Fluorescence intensity of 6-NBD-Glc in competition with Example 102 [25 μM] (erythrocytes; 60 min, competition with 6-NBD-Glc): 12.5 AU | Fluorescence intensity of 6-NBD-Glc in competition with Example 102 [25 μM] (erythrocytes; 90 min, competition with 6-NBD-Glc): 19.3 AU | Fluorescence intensity of 6-NBD-Glc in competition with Example 102 [25 μM] (erythrocytes; 120 min, competition with 6-NBD-Glc): 25.1 AU | Fluorescence intensity of 6-NBD-Glc in competition with Example 102 [25 μM] (erythrocytes; 180 min, competition with 6-NBD-Glc): 32.1 AU | Slope of fluorescence intensity vs time in comparison to control (erythrocytes; competition with 6-NBD-Glc): clear increase in the slope

More lines, now with the values ahead:

pIC50 ([1]; Homo sapiens, 10 mM Gluc, read-out: IC50 @ 10 mM Gluc): < 4.00 | pIC50 ([1]; Homo sapiens, read-out: IC50): 5.08
Compound: COc1cc(C(=O)OC[C@H]2OC(O)[C@H](O)[C@@H](O)[C@@H]2O)cc(Cl)c1Oc1ccccc1 (some centres unmarked) [Example 138]

pIC50 ([1]; read-out: IC50): 4.07
Compound: 6-Desoxy-6-(3-undecenyloxypheny)-4-piperazin-1-yl-D-galactopyranose [Example 141]

pIC50 ([1]; 10 mM Gluc, read-out: IC50 @ 10 mM Gluc): < 4.00 | pIC50 ([1]; read-out: IC50): 4.48
Compound: Methyl-2-O-(3-chloro-3′-methoxy-4-phenoxyphenylcarbonyl)-α-D-glucopyranoside [Example 124]
